The values below come from patent publication US20030176356A1, “Endothelin antagonists and endothelin-converting enzyme inhibitors for the treatment of glaucoma” (University of North Texas Health Science Center, priority 2001, published 2003).

The subject of test [1] is human non-pigmented ciliary epithelial (HNPE) cells. Nature of the test: Nitric oxide release from HNPE cells (nitrite, Griess colorimetric assay). The format is cell-based. Particulars: 100 nM ET-1, 24 hours; control 14.4±1.8 μM nitrite. The procedure:
The effect of endothelin-1 (ET-1) and PD-142893, an ETA/B receptor antagonist, on nitric oxide (“NO”) release from human non-pigmented ciliary epithelial (HNPE) cells are illustrated in FIG. 6. The NO released into the culture media from HNPE cells grown in 24-well plates and treated with ET-1 (100 nM) for 24 hours was converted to nitrites. The total amount of nitrites was measured using the Griess colorimetric assay. HNPE cells were pre-treated with PD-142893 (1 μM) for 30 minutes and then 100 nM ET-1 was also added and incubated for 24 hours. The values in FIG. 6 represent the mean±SEM of a ratio between the nitrite produced under experimental conditions divided by the nitrite produced in control cells, which corresponded to 14.4±1.8 μM and controls were expressed as 100% (n=3). Statistical significance of the nitrite released from ET-1 (100 nM) treatment versus the control are denoted with an asterisk (“*”). Statistical significance of the nitrite released from PD-142893+ET-1 (100 nM) treatment versus that of ET-1 (100 nM) are denoted as a double asterisk (“**”) The statistical differenced were determined by one-way ANOVA and Student-Newman-Keuls multiple comparison test (p<0.05). Thus, addition of ET-1 increased the nitrite levels nearly 2-fold when compared to control cells or cells treated with PD-142893.
On the technique in general: Griess reagent forms a coloured azo dye with nitrite.

A further test concerns NOS2. Nature of the test: NOS2 mRNA expression in HNPE cells by RT-PCR. In kind it is cell-based, human. Particulars: 100 nM ET-1, 24 hours, qualitative, vs non-treated controls. From the text: Utilizing the powerful technique of RT-PCR on mRNA transcripts of NOS2, the amplified products were separated on an agarose gel and compared with untreated control RT_PCR products. […] RT-PCR products of the β-actin housekeeping gene were also amplified and visualized on an agarose gel as a mRNA isolation control.

The test system of a further test is rat optic nerve. Nature of the test: Anterograde axonal transport in rat optic nerve after intravitreal injection (35S-methionine pulse label). In kind it is in vivo. Particulars: for effect of ET-1 on anterograde axonal transport: intravitreal 2 nmol. From the text: Newly synthesized proteins undergoing anterograde axonal transport in the optic nerve were pulse-labeled in either the presence or absence of endothelin as modified from previously published methods (van Biesen et al., 1995). Modifications to previously published methods were minimal and involved the replacement of a distilled water vehicle for resuspension of radiolabeled precursors with either HEPES buffered ET-1 or HEPES vehicle buffer alone. ^35S-Methionine (Easytag EXPRESS PROTEIN LABELING MIX, Dupont-NEN Life Sciences, Boston, Mass.) was lyophilized and resuspended in either vehicle alone (10 mM HEPES, pH 7.4, Sigma Chemical Co., St Louis, Mo.) or in vehicle containing 500 μM ET-1 (Bachem, Belmont, Calif.). Rats were anesthetized by Metofane inhalation, and 0.8 mCi (4 μl) of radiolabel in vehicle either plus or minus ET-1 (final dose 2 mmols), was injected into the vitreous of the left eye using a 30 gauge needle attached to a Hamilton syringe (microliter #710, 22s gauge, Hamilton Co., Reno, Nev.) by polyethylene tubing (PE-20, Clay Adams Brand, Becton Dickson and Co., Sparks, Md.) (van Biesen et al., 1995). In one experiment, ET-3 was substituted for ET-1, using the same methods (2 mmol dose, 28 hour ISI, N=7 for controls, N=7 for experimentals). […] One minute after injection, all retinas appeared normal in color. (Based upon these initial observations, further observations of the retinas were not performed). Information on the dose-related effect(s) of intravitreal ET-1 in this species (i.e. rat) were unavailable, and physiological/pathological concentrations of endothelin in the optic nerve head's microenvironment are generally unknown. Therefore, dose selection was made on the basis of a small pilot study, using these methods and measuring the total pulse-labeled protein axonally transported into the rat optic nerve. (An N of 3 rats in every group was used only for the pilot study, 4 hour ISI, data not shown). […] However, significant effects on axonal transport (4 hour ISI) were only seen in the pilot study for the 2 mmol dose. […] Possible effect(s) on non-assayed ocular tissues were not considered in dose selection, as data on these were unavailable for either acute or chronic intravitreal ET-1 administration, in rats.
This technique was employed to determine if endothelin-1 also affected the axonal transport in the optic nerve of rats, which is severely compromised in glaucoma. Harvest and preparation of pulse-labeled optic nerves in animals, wherein animals were anesthetized with metofane at specified times after injection and sacrificed by decapitation. Injection-sacrifice intervals were selected based upon the published characterizations of anterograde axonal transport in rat optic nerve for specific marker proteins associated with specific classes of axonally transported materials (Table 4) (Elluru et al., 1995; Garner and Lasek, 1981; Garner and Lasek, 1982; Jahn et al., 1985). Seven vehicle-treated animals and seven endothelin-treated animals were sacrificed at each of the specified times (4, 24, 28, 32, 36 hours and 4, 21 days). Optic nerves were removed, flash frozen with crushed dry ice, and sectioned frozen. Nerves were sectioned to aid complete homogenization, and to provide additional data for future studies. The frozen sections (2 mm in length) were numbered as segments 1-4 (from proximal to distal), and glass-on glass homogenized in 100 μlof BUST sample buffer (2% β-mercaptoethanol, 8M urea, 1% SDS, 0.1M Tris, 0.02% phenol red, pH 7.4). A 25% aliquot of each homogenized segment was counted in a liquid scintillation counter, and counts were corrected for decay, quench, and counting efficiency.

In a further test the test system is NOS-2. Nature of the test: NOS-2 mRNA expression in retina after intravitreal injection, RT-PCR. In kind it is in vivo, Brown Norway rats. Particulars: intravitreal 2 mmoles, 4 hours or 24 hours post-injection. As to the method:
Elevated NOS-2 expression and peroxynitrite labeling are observed in glaucomatous retina and optic nerve head and are considered to be neurotoxic, which promote retinal ganglion cell death. ET-1 was injected in the left eye (OS) of rats while the right eye served as an contralateral control. Saline was also injected in some rats.

“Also recorded” adds a separate entry of the source. No end group written: not given here.

Take “ET-1: active 21 amino acid residue endothelin peptide (Bachem) (CSCSSLMDKECVYFCHLDIIW; ends and bridges not checked; cysteine pairing not given here; UniProt P05305 53-73, looked up)”: in test [1], the “increase of nitrite levels compared to control cells” value is around 2 fold. In addition, the “NOS2 mRNA levels” value in the test on NOS2 is listed as “elevated mRNA levels of NOS2”. Also, in the test on rat optic nerve (0.3, 0.4, and 2 mmol doses intravitreal, 4 hour ISI, significant only for the 2 mmol dose), the “total pulse-labeled protein axonally transported into the rat optic nerve (pilot study)” value is “trend of increasingly enhanced axonal transport”. The “effect of ET-1 on anterograde axonal transport” value in the test with rat optic nerve (ISI 4 hr, fast component, MBO/small tubulovesicles) is recorded as “significant enhancement; also recorded: increased”; in the test with rat optic nerve (ISI 24 hr, fast component, MBO/small tubulovesicles), “significant enhancement; also recorded: increased”; in the test on rat optic nerve (ISI 28 hr, fast component, MBO/mitochondria), “significant reduction; also recorded: decreased”; with rat optic nerve (ISI 32 hr, fast component, MBO/mitochondria) it was “significant reduction; also recorded: decreased”; with rat optic nerve (ISI 36 hr, fast component, MBO/mitochondria), “significant reduction; also recorded: decreased”; with rat optic nerve (ISI 4 days, SCa, cytoplasmic matrix proteins) it was “significant reduction; also recorded: decreased”. In the test with rat optic nerve (ISI 21 days, SCb, cytoskeletal proteins), the “effect of ET-1 on anterograde axonal transport” value is “significant reduction; also recorded: decreased”. Also, the “mRNA expression of inducible nitric oxide synthase-2 (NOS-2) in the retina” value in the test on NOS-2 is “causes the mRNA expression of inducible nitric oxide synthase-2 (NOS-2)”.
